This passage reports normalised response results from the supplement of paper PMC4862054.

Assay in all cases: normalised response (% of control), CellTiter-Glo; higher = more viable cells (100 = DMSO, 0 = benzethonium chloride kill control)
Holding throughout (settings): incubation time: 72 h
(Cellular ATP, detected with luciferase, serves as a proxy for viable cell number.)

The test system of assay [1] is MDA-MB-468. How it is done: (§1)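 DSRT, 72 h incubation, CellTox Green / CellTiter-Glo readout. Signal is normalised to DMSO and benzethonium chloride controls. Value is the normalised response at the highest dose.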
The test system of assay [2] is BT-549. As to the method:
as §1

In assay [3] the test system is MDA-MB-231. As to the method:
as §1

Assay [4] has as its system CAL-85-1. How it is done: as §1
In assay [5] the test system is MDA-MB-436. How it is done: as §1
Assay [6] has as its system BT-474. As to the method:
as §1

The subject of assay [7] is MCF-10A. How it is done: as §1

On to `CC(=O)O[C@@]12CO[C@@H]1C[C@H](O)[C@@]1(C)C(=O)[C@H](O)C3=C(C)[C@@H](OC(=O)[C@H](O)[C@@H](NC(=O)OC(C)(C)C)c4ccccc4)C[C@@](O)([C@@H](OC(=O)c4ccccc4)[C@H]21)C3(C)C` [Docetaxel] (1000 nM), for which the normalised response in assay [1] came to 34.9%; in assay [2] it was 17.1%; in assay [3], 28.5%; in assay [4], 28.9%; in assay [5] it was 32.8%; in assay [6], 39.3%. Also, in assay [7], the normalised response was found to be 48%.

Regarding `Cn1cnc2c(F)c(Nc3ccc(Br)cc3Cl)c(C(=O)NOCCO)cc21` [Selumetinib] (10000 nM), the normalised response in assay [1] is 69.9%; in assay [2], 84.1%; in assay [3] it was 62.4%; in assay [4] it was 61%; in assay [5] it was 85.4%; in assay [6], 55.5%. Also, the normalised response in assay [7] amounted to 31.8%.

Turning to `Cn1cc(C2=Nc3cc(NC(=O)C(N)C4CCCCC4)cc4c3C2=CNNC4=O)cn1` (stereo not drawn) (10000 nM), the normalised response is 12.4% in assay [1]; 12.1% in assay [2]; 37.3% in assay [3]; 26.7% in assay [4]; 22.6% in assay [5]; 38.3% in assay [6]. The normalised response in assay [7] came to 38.6%.

Take `Oc1ncnc2[nH]ncc12` [Allopurinol] (10000 nM): the normalised response in assay [1] was determined as 97.9%; in assay [2], 102%; in assay [3], 103%; in assay [4] it was 106%; in assay [5] it was 101%; in assay [6], 97.9%. The compound further returned a normalised response in assay [7] of 105%.

For the compound `O=C1CN2Cc3c(ccc(Cl)c3Cl)N=C2N1` [Anagrelide] (10000 nM), the normalised response in assay [1] is 92%; in assay [2], 97.3%; in assay [3] it was 99.5%; in assay [4], 94.4%; in assay [5], 96%; in assay [6], 88%. In assay [7], this compound showed a normalised response of 105%.

On to `CC1=C2C[C@H]3[C@@H](CC=C4C[C@@H](O)CC[C@@]43C)[C@@H]2CC[C@]12O[C@@H]1C[C@H](C)CN[C@H]1[C@H]2C` [Cyclopamine] (10000 nM), for which the normalised response is 51.5% in assay [1]; 58% in assay [2]; 106% in assay [3]; 104% in assay [4]; 84.6% in assay [5]; 113% in assay [6]. This compound came in with a normalised response in assay [7] of 108%.

Take `COc1cc2c(cc1O)CC[C@@H]1[C@@H]2CC[C@]2(C)[C@@H](O)CC[C@@H]12` [2-methoxyestradiol] (10000 nM): the normalised response in assay [1] turned out to be 34.4%; in assay [2], 48.8%; in assay [3], 51.9%; in assay [4], 33.3%; in assay [5], 44.7%; in assay [6], 58.1%. In assay [7], this compound registered a normalised response of 67.1%.

Consider `Nc1nc2[nH]cnc2c(=S)[nH]1` [Thioguanine] (10000 nM), for which the normalised response was found to be 48.9% in assay [1]; 48.5% in assay [2]; 33.4% in assay [3]; 51.7% in assay [4]; 31.3% in assay [5]; 40.8% in assay [6]. In assay [7], this compound gave a normalised response of 66.9%.

For the compound `O=NN(CCCl)C(=O)NCCCl` [Carmustine] (10000 nM), the normalised response in assay [1] came out at 97.3%; in assay [2], 110%; in assay [3] it was 99.9%; in assay [4] it was 101%; in assay [5], 96.7%; in assay [6], 91.5%. In assay [7], the normalised response was 93.8%.

On to `CC[C@@H]1C(=O)OC[C@@H]1Cc1cncn1C` [Pilocarpine] (40000 nM), for which the normalised response in assay [1] turned out to be 96%; in assay [2] it was 102%; in assay [3] it was 93.4%; in assay [4] it was 94.6%; in assay [5], 89.7%; in assay [6] it was 91.6%. The compound also yielded a normalised response in assay [7] of 99.1%.

Regarding `Nc1ncn([C@@H]2O[C@H](CO)[C@@H](O)[C@H]2O)c(=O)n1` [Azacitidine] (10000 nM), the normalised response in assay [1] came to 17%; in assay [2], 45%; in assay [3], 68%; in assay [4], 106%; in assay [5], 54.7%; in assay [6], 71.4%. Further, the normalised response in assay [7] turned out to be 77%.

As for `CC(C)(C)c1cnc(CSc2cnc(NC(=O)C3CCNCC3)s2)o1` [SNS-032] (10000 nM), the normalised response turned out to be 6.47% in assay [1]; 5.15% in assay [2]; 8.77% in assay [3]; 7.47% in assay [4]; 18.2% in assay [5]; 31.8% in assay [6]. Further, the normalised response in assay [7] worked out at 17.1%.

Regarding `Cc1sc2c(c1C)C(c1ccc(Cl)cc1)=N[C@@H](CC(=O)OC(C)(C)C)c1nnc(C)n1-2` [(+)JQ1] (10000 nM), the normalised response amounted to 36.6% in assay [1]; 35.7% in assay [2]; 64.2% in assay [3]; 27.9% in assay [4]; 76.4% in assay [5]; 66.1% in assay [6]. In addition, the normalised response in assay [7] was determined as 46.5%.

As to `CC1(C)CNc2cc(NC(=O)c3cccnc3NCc3ccncc3)ccc21` [Motesanib] (10000 nM), the normalised response in assay [1] is 87.6%; in assay [2] it was 97%; in assay [3], 93.5%; in assay [4] it was 95.8%; in assay [5], 95%; in assay [6], 90.9%. The normalised response in assay [7] worked out at 95.4%.
